From patent US10052318B2, “Glutamate agents in the treatment of mental disorders” (YALE UNIVERSITY, priority 2005, dated 2018)

Legend:
C57BL/6J mice = assay: Tail suspension test; format: in vivo; conditions: after 7 days, 1 injection/day, versus saline
[1] = test system: animal model of Amyotrophic Lateral Sclerosis (ALS); conditions: by increasing glutamate transport, L-[3H] glutamate uptake into cortical membrane; Rothstein et al. 2005; cited from earlier work
[2] = test system: glial glutamate uptake transporter; conditions: Rothstein et al., Nature 2005; cited from earlier work
[3] = test system: transgenic mice expressing cholera toxin subunit in dopamine D1 receptor-expressing limbic cortical cells; conditions: cited from earlier work; for perseverative (OCD-like) behaviors: baseline behaviors of the transgenic mice
[4] = test system: patient with SRI-refractory OCD; assay: Case report two: N-acetylcysteine augmentation of fluvoxamine in SRI-refractory OCD; format: in vivo, human
Text: A person presented to our clinic seeking help for persistent and severe OCD symptoms. Diagnosis of OCD was confirmed using the Structured Clinical Interview for DSM-IV Axis I Disorders-Clinician Version. First et al., Structured clinical interview for DSM-IV Axis I Disorders (SCID-I Clinician Version), American Psychiatric Press, Inc., Washington, D.C., 1997. After informed consent, a person was admitted to the Clinical Neuroscience Research Unit of the Abraham Ribicoff Research Facilities (New Haven, Conn.) and treated clinically with an off-label use of NAC augmentation of fluvoxamine. OCD symptoms were followed using weekly Yale-Brown Obsessive-Compulsive Scale (Y-BOCS) ratings. NAC (United States Pharmacia grade and in capsule form) was initiated at a starting dose of 600 mg PO daily and titrated upward to a total daily dose of 3 grams per day over 6 weeks. NAC was continued at the dose of 3 grams per day for an additional seven weeks. Fluvoxamine 300 mg was continued throughout the NAC treatment period. A person remained on the inpatient unit throughout the treatment period and received supportive psychotherapy. […] In fact, they were resistant to implementing behavioral interventions given the past failure of such interventions.

[5] = test system: patients with anxiety symptoms; assay: Riluzole addition in patients with anxiety and mood symptoms (HAM-A); format: in vivo, human
[6] = test system: patients with treatment-resistant depression; assay: Riluzole addition in control group with treatment-resistant depression; conditions: control group with treatment-resistant depression alone
[7] = test system: patient with severe, chronic TTM; assay: Case report one: riluzole in trichotillomania and recurrent major depression; format: in vivo, human
[8] = test system: patient with Trichotillomania; assay: Case report: riluzole addition in trichotillomania; format: in vivo, human

For `CO/N=C(\C(=O)N[C@@H]1C(=O)N2C(C(=O)O)=C(CSc3nc(=O)c(=O)[nH]n3C)CS[C@H]12)c1csc(N)n1` [Ceftriaxone, ceftriaxone], the “decrease in the immobility time” value (C57BL/6J mice; C57BL/6J males, 10 animals/group) was about 20%, the bouts of immobility (C57BL/6J mice) was “decreased bouts of immobility” and the latency (C57BL/6J mice) was “trend for increased latency”. For the same molecule, the neuroprotection [1] was “neuroprotective” and the “upregulation of the glial glutamate transporter” value [2] was “upregulated the glial glutamate transporter more so than many other drugs”.

In the case of `C[C@]12N[C@H](Cc3ccccc31)c1ccccc12` [MK-801], the “perseverative (OCD-like) behaviors” value [3] is given as “worsen”.

In the case of `CC(=O)N[C@@H](CS)C(=O)O` [NAC, N-acetylcysteine], the Y-BOCS score ([4]; NAC 600 mg daily titrated to 3 grams per day over 6 weeks, continued seven weeks, fluvoxamine 300 mg) is reported as “dramatically decreased”, the side effects ([4]; NAC up to 3 grams per day) is reported as “a few episodes of mild, brief right hand tingling and a single day of xerostomia” and the routine lab monitoring ([4]; over the course of admission) is reported as “no further abnormalities”. For the same molecule, the “OCD symptoms at follow-up” value ([4]; two month follow-up visit, same dose of NAC and fluvoxamine) was “remained improved”.

In the case of `NS(=O)(=O)c1cccc2c1c([N+](=O)[O-])cc1nc(O)c(O)nc12` [NBQX], the “perseverative (OCD-like) behaviors” value [3] is given as “does not affect” and the “worsening of OCD-like behaviors induced by MK-801” value ([3]; transgenic mice given MK-801) is given as “does not attenuate”.

With `Nc1nc2ccc(OC(F)(F)F)cc2s1` [Riluzole, riluzole] the “reduction in HAM-A scores post study treatment” value ([5]; Subjects P3, P5, P6, P7, P11, P12) was at least 35%, the “HAM-A scores for the group over time” value ([5]; riluzole 50 mg twice a day) was “significantly improved” and the “tolerability / adverse effects” value ([5]; riluzole 50 mg twice a day) was “well tolerated with no serious adverse effects noted”. The “Mean Pre-Treatment HAM-A” value ([5]; thirteen participants, before riluzole) was 18.2+/−6.2, the “Mean Post-Treatment HAM-A” value ([5]; thirteen participants, riluzole 50 mg twice a day added to existing pharmacotherapy) was 12.8+/−7.2 and the “HAM-D scores in response to riluzole” value [6] was “significant improvement”. For the same molecule, the “urges to pull hair at follow-up” value ([7]; 72 weeks after initiating riluzole, 100 mg twice a day) was “minimal and readily ignored”, the “TTM ratings (PITS, MGH Hairpulling Scale)” value ([7]; at presentation PITS 23, MGH 17, after up-titration of riluzole) was “corresponding fall” and the HAM-D at presentation ([7]; before riluzole, on escitalopram 30 mg daily) was 26. The HAM-D ([7]; week 16, riluzole titrated from 50 mg twice a day to 200 mg daily) was 7, the “urges to pull hair” value ([7]; with up-titration of riluzole to 150 mg and then 200 mg daily) was “vanished entirely” and the Trichotillomania symptoms ([8]; A person, riluzole up to 100 mg twice a day) was “cessation of Trichotollomania symptoms”. For the same molecule, the “Reduction in PITS score” value ([8]; after 6 weeks of riluzole addition to Lexapro 30 mg, 50 mg titrated to 100 mg twice a day) was 74% and the “Reduction in MGH Pulling Scale Score” value ([8]; after 12 weeks of treatment with riluzole) was over 35%.
